# Data reported in ChEMBL document CHEMBL2016563, “Synthesis of new bergenin derivatives as potent inhibitors of inflammatory mediators NO and TNF-α” (Bioorg Med Chem Lett, 2012).
# pIC50: −log10 of the molar value.
# How the values were obtained:
# [1] = tested on: J774.2; experiment: Antiinflammatory activity in mouse J774.2 cells assessed as inhibition of LPS-induced NO production at 60 uM after 48 hrs by spectrophotometry; format: functional; conditions: J774.2, 48 h
# [2] = Antiinflammatory activity in human neutrophils assessed as inhibition of opsonized zymosan A-mediated superoxide anions production by WST-1 based respiratory burst assay; format: functional, cell-based, Neutrophil; conditions: for pIC50: Homo sapiens, Neutrophil, read-out: IC50; for IC50: neutrophil
# [3] = tested on: THP-1; experiment: Antiinflammatory activity in human THP1 cells assessed as inhibition of LPS-B-induced TNF-alpha production at 60 uM after 4 hrs; format: functional; conditions: THP-1, 4 h
# [4] = tested on: NIH3T3; experiment: Cytotoxicity against mouse 3T3 cells at 100 uM after 72 hrs by MTT assay; format: cell-based; conditions: nih3t3, 72 h
# [5] = tested on: THP-1; experiment: Induction of LPS-B-induced TNF-alpha production in human THP1 cells at 60 uM after 4 hrs; format: functional
# [6] = tested on: J774.2; experiment: Induction of LPS-induced NO production in mouse J774.2 cells at 60 uM after 48 hrs by spectrophotometry; format: functional
SMILES,inhibition at 60 µM [1] [%],pIC50 [2],inhibition at 60 µM [3] [%],Activity [4],Activity [5] [%],Activity [6] [%],IC50 [2]
CCCCCOc1cc2c(c(OCCCCC)c1OC)[C@@H]1O[C@H](CO)[C@@H](O)[C@H](O)[C@H]1OC2=O,3.4,3.53,20.9,Non-toxic,,,
C=CCOc1cc2c(c(OCC=C)c1OC)[C@@H]1O[C@H](CO)[C@@H](O)[C@H](O)[C@H]1OC2=O,5.5,3.48,,Non-toxic,18.41,,
CNC(=N)NCCC[C@H](N)C(=O)O [TILARGININE ACETATE],40,,,,,,
CCCCOc1cc2c(c(OCCCC)c1OC)[C@@H]1O[C@H](CO)[C@@H](O)[C@H](O)[C@H]1OC2=O,31.2,3.39,26.3,Non-toxic,,,
CCCCCCCOc1cc2c(c(OCCCCCCC)c1OC)[C@@H]1O[C@H](CO)[C@@H](O)[C@H](O)[C@H]1OC2=O,18,3.67,28.7,Non-toxic,,,
COc1c(OCC(=O)OC(C)(C)C)cc2c(c1OCC(=O)OC(C)(C)C)[C@@H]1O[C@H](CO)[C@@H](O)[C@H](O)[C@H]1OC2=O,16.3,3.32,9.6,Non-toxic,,,
COc1c(OC(C)C)cc2c(c1OC(C)C)[C@@H]1O[C@H](CO)[C@@H](O)[C@H](O)[C@H]1OC2=O,,3.52,,Non-toxic,8.44,5.5,
CCOC(=O)COc1cc2c(c(OCC(=O)OCC)c1OC)[C@@H]1O[C@H](CO)[C@@H](O)[C@H](O)[C@H]1OC2=O,86.8,3.60,96.2,Non-toxic,,,
C#CCOc1cc2c(c(OCC#C)c1OC)[C@@H]1O[C@H](CO)[C@@H](O)[C@H](O)[C@H]1OC2=O,19.4,3.42,,Non-toxic,27.56,,
CCOc1cc2c(c(OCC)c1OC)[C@@H]1O[C@H](CO)[C@@H](O)[C@H](O)[C@H]1OC2=O,54.5,3.49,98.6,Non-toxic,,,
C=CCCCCOc1cc2c(c(OCCCCC=C)c1OC)[C@@H]1O[C@H](CO)[C@@H](O)[C@H](O)[C@H]1OC2=O,9.4,3.57,17.7,Non-toxic,,,
COc1c(OCC#N)cc2c(c1OCC#N)[C@@H]1O[C@H](CO)[C@@H](O)[C@H](O)[C@H]1OC2=O,13.3,3.38,,Non-toxic,26.21,,
CCCOc1cc2c(c(OCCC)c1OC)[C@@H]1O[C@H](CO)[C@@H](O)[C@H](O)[C@H]1OC2=O,8.9,,,Non-toxic,5.57,,Not Active
CCCCCCCCOc1cc2c(c(OCCCCCCCC)c1OC)[C@@H]1O[C@H](CO)[C@@H](O)[C@H](O)[C@H]1OC2=O,18,3.65,,Non-toxic,3.4,,
COc1c(O)cc2c(c1O)[C@@H]1O[C@H](CO)[C@@H](O)[C@H](O)[C@H]1OC2=O [BERGENIN],4.3,3.52,,Non-toxic,7.91,,
COc1cc2c(c(OC)c1OC)[C@@H]1O[C@H](CO)[C@@H](O)[C@H](O)[C@H]1OC2=O,47.6,,0.44,Non-toxic,,,Not Active
COc1ccc2c(c1)c(CC(=O)O)c(C)n2C(=O)c1ccc(Cl)cc1 [INDOMETHACIN],,3.57,,,,,
C=CCCOc1cc2c(c(OCCC=C)c1OC)[C@@H]1O[C@H](CO)[C@@H](O)[C@H](O)[C@H]1OC2=O,3.6,3.54,,Non-toxic,13.27,,
